# Laboratory results: patent publication US8216644B2, “Controlling wood staining and color during post-harvest processing” (Purdue Research Foundation, priority 2006, dated 2012)
# What was measured:
# [1] = tested on: freshly cut sugar maple wood; assay: test strip assay on freshly cut wood, sugar maple
# [2] = tested on: freshly cut black walnut wood
structure (smiles),measurement,setting,value
NC(N)=O.OO [hydrogen peroxide urea adduct],staining of wood at 10%,"[1]; 10% (w:w), FIG. 1",chemical breakdown of the staining due to bulk oxidation
same,"background gray scale values (bg), relative darkness","[1]; image analysis of FIG. 3, plot profile, FIG. 5",increase in wood darkening with increasing hydrogen peroxide urea adduct concentrations
same,concentration range in which the staining reaction appears saturated,"[1]; test strips 0, 0.5, 1.0, 5.0 and 10% (w:w), FIG. 1",0.5-1.0%
same,staining reaction over concentration range,"[1]; test strips 0.05, 0.1, 0.5 and 1.0% (w:w), FIG. 3",shows a dose response curve
same,staining of wood,"[2]; 0.5 and 1.0% (w:w) concentration range, FIG. 4",visible staining
same,staining of wood (experimental spots),"[2]; test strips 0.5, 1.0, 5.0 and 10% (w:w), FIG. 2",visible on top of the background staining
